Reference: the NIST ThermoML archive (doi:10.1021/je400488x)
Numbers after ± are expanded uncertainties.

Assays:
[1] = 293.15 K; 101.33 kPa; Liquid; Vibrating tube method
[2] = refractive index (Na D-line) (dimensionless); settings: 298.15 K; 101.33 kPa; Liquid; Standard Abbe refractometry

mass density [1]	refractive index [2]	SMILES
1328 ± 1 kg/m3	–	Oc1ccc(O)cc1 [1,4-benzenediol]
739.8 ± 0.4 kg/m3	1.3689 ± 0.0005	COC(C)(C)C [2-methoxy-2-methylpropane]
